The values that follow come from patent publication US5071988A, “Substituted benzoylbenzene-, biphenyl- and 2-oxazole-alkanoic acid derivatives” (American Home Products Corporation, priority 1991, dated 1991).

Assay [1] deals with 6-keto-PGF1α /TxB2 (cyclooxygenase pathway). Description: in vivo murine zymosan peritonitis assay, 6-keto-PGF1α. Further details: species or system mouse (male CD-1). As for the experimental part:
(§1) The compounds of the invention are evaluated for their ability to inhibit the lipoxygenase and/or cyclooxygenase pathways of arachidonic acid metabolism in the in vivo murine zymosan peritonitis assay.
Male CD-1 mice (8 weeks old) are placed in plastic boxes in groups of six. Animals are injected with 1 mL i.p. of either 1% zymosan in pyrogen free 0.9% saline or saline (unstimulated control). Compounds are dosed orally 1 hour prior to zymosan injection. Twenty minutes after zymosan injection, the mice are asphyxiated by CO2 inhalation and the peritoneal cavity is lavaged with 2 mL ice cold Hanks Balanced Salt Solution (HBSS) without CaCl2, MgSO4. 7H2 O and MgCl2.6H2 O. Peritoneal lavage fluid from each mouse is removed by syringe and placed in 5 mL plastic test tubes put on ice and volume is noted. Preparation of samples for evaluation by ELISA is as follows: Samples are centrifuged at 800 xg for 15 minutes; 1 mL of the supernatant is added to 8 mL ice cold methanol and kept at -70° C. overnight to precipitate protein; and samples are then centrifuged at 800 xg for 15 minutes, followed by a drying procedure in a Savant speed vac concentrator. […]
(§2) The total metabolite level in lavage fluid/mouse is calculated and the significance is determined by a one-way analysis of variance with LSD comparisons to control (p≤0.05). Drug effects are expressed as a percent change from control values.

The subject of assay [2] is Fluid Exudation. Nature of the assay: reverse passive Arthus pleurisy assay, fluid exudation. The settings on record: Rattus norvegicus, po, 1 hour prior to anti-BSA; standard drugs. Type of assay: in vivo, rat (male Lewis). The protocol:
(§3) The compounds of the invention are further tested in the reverse passive Arthus pleurisy assay to evaluate their effectiveness in inflammatory mediator release and/or the fluid and cellular phases of an inflammatory response.
(§4) A reverse passive Arthus reaction is induced in the pleural cavity of male Lewis rats (150-200 g; fasted overnight prior to use) by the intravenous administration of bovine serum albumin (BSA; 4 mg/0.2 ml) followed by 30 minutes later by the injection of rabbit anti-BSA (1 mg/0.2 ml; lyophilized IgG fraction; Organon Teknika, West Chester, Pa.) into the right pleural space under halothane anesthesia. Drugs or vehicle (0.5% Tween-80) control are administered orally in a volume of 1 ml/100 g body weight at 1 hour prior to the anti-BSA. Animals are sacrificed at either the time of peak eicosanoid production (i.e. 5 minutes after anti-BSA for immunoreactive TxB2 10 minutes for immunoreactive LTB4, 20 minutes for immunoreactive LTC4) or at the time of peak neutrophil infiltration (4 hours after anti-BSA) by CO2 inhalation. The pleural cavity is then exposed, the fluid exudate removed by gentle vacuum aspiration and the volume of exudate is recorded. For the determination of cellular infiltration, the pleural cavity is rinsed with 3 ml of 0.1% EDTA in sterile saline, and the recovered wash is pooled with the exudate. Cell number is determined on a model ZBI Coulter counter. For determination of eicosanoid production, undiluted pleural exudate is microfuged and the supernatant is extracted with ethanol (8-10 times volume). Extracts are either stored at -20° C., or are evaporated to dryness under a stream of N2 and reconstituted in radioimmunoassay (RIA) buffer.
(§5) Inflammatory cells are expressed as 10^6 cells/ml, pleural exudate is expressed as ml of fluid, and the amount of eicosanoids in the pleural cavity is expressed as ng/ml of exudate. Mean±S.E.M. is determined for each group. Percent inhibition (% I) of cell number, exudate volume and eicosanoid production is calculated for vehicle-treated control groups, and the responses in drug-treated rats are then expressed as the mean % I of the control. […] Exp. Ther., 96, 99-113 (1949).

Assay [3] concerns TxB2. Description: reverse passive Arthus pleurisy assay, TxB2. The class given is in vivo, rat (male Lewis). The settings on record: Rattus norvegicus, po, 5 min, read-out: ED50 TxB2. As for the experimental part: as §3, §4
(§6) Eicosanoids are quantitated by RIA according to the procedure specified by the RIA kit manufacturer (Advanced Magnetics, Cambridge, Mass.). Briefly, 100 μl of ^3 H-labeled eicosanoid and 100 μl of specific antibody are sequentially added to 100 μl of extracted pleural exudate in BGG -phosphate buffer which contains 0.01M phosphate, 0.1% bovine gamma globulin and 0.1% sodium azide at pH 7.0. Antibody-bound eicosanoid is separated from unbound eicosanoid by the addition of 750 μl of dextran (0.4%)-coated charcoal (0.4% Norit A) containing 0.1% sodium azide. The mixture is centrifuged at 2000 RPM at 5° C. for 15 minutes to pellet the charcoal and adsorbed unbound eicosanoid. Antibody-bound labeled eicosanoid is quantitated by counting in a liquid scintillation counter, and is correlated to concentration by a standard curve.
as §5

In assay [4] the test system is Cellular Influx. Nature of the assay: reverse passive Arthus pleurisy assay, cellular influx. The class given is in vivo, rat (male Lewis). The settings on record: Rattus norvegicus, po, 4 h, 1 hour prior to anti-BSA; standard drugs. The protocol: as §3, §4, §5
The subject of assay [5] is LTB4. Description: reverse passive Arthus pleurisy assay, LTB4. Type of assay: in vivo, rat (male Lewis). The settings on record: Rattus norvegicus, po, 1 hour prior to anti-BSA; standard drugs; read-out: ED50 LTB4. As for the experimental part: as §3, §4, §6, §5
In assay [6] the test system is LTC4 (lipoxygenase pathway). Nature of the assay: in vivo murine zymosan peritonitis assay, LTC4. The settings on record: for ED50 LTC4: p.o., 1 hour prior to zymosan, standard drugs. Further details: species or system mouse (male CD-1). As for the experimental part:
as §1
Male CD-1 mice (8 weeks old) are placed in plastic boxes in groups of six. Animals are injected with 1 mL i.p. of either 1% zymosan in pyrogen free 0.9% saline or saline (unstimulated control). Compounds are dosed orally 1 hour prior to zymosan injection. Twenty minutes after zymosan injection, the mice are asphyxiated by CO2 inhalation and the peritoneal cavity is lavaged with 2 mL ice cold Hanks Balanced Salt Solution (HBSS) without CaCl2, MgSO4. 7H2 O and MgCl2.6H2 O. Peritoneal lavage fluid from each mouse is removed by syringe and placed in 5 mL plastic test tubes put on ice and volume is noted. Preparation of samples for evaluation by ELISA is as follows: Samples are centrifuged at 800 xg for 15 minutes; 1 mL of the supernatant is added to 8 mL ice cold methanol and kept at -70° C. overnight to precipitate protein; and samples are then centrifuged at 800 xg for 15 minutes, followed by a drying procedure in a Savant speed vac concentrator. The samples are reconstituted with 1 mL ice cold ELISA buffer and stored at -70° C. until assayed. The assay for eicosanoids (LTC4 and 6-keto-PGF1α) is performed according to conventional ELISA procedures.
Compounds to be tested orally are suspended in 0.5% Tween 80. Compounds to be tested intraperitoneally are suspended in 0.5% methylcellulose in 0.9% saline.
as §2

Assay [7] deals with LTB4 synthesis by rat glycogen-elicited polymorphonuclear leukocytes (PMN). Description: inhibition of LTB4 synthesis by rat glycogen-elicited polymorphonuclear leukocytes (PMN). Type of assay: cell-based, rat (female Wistar). The settings on record: Leukocyte, at 10 μM. From the text:
This is especially true with respect to 5,12-diHETE, which is also denoted as LTB4 [see Ford-Hitchinson, J. Roy. […] Med., 74, 831 (1981)]. Compounds which inhibit the PLA2 -mediated release of arachidonic acid thereby effectively prevent the oxidation of arachidonic acid to the various leukotriene products via the lipoxygenase cascade. Accordingly, the specificity of action of PLA2 inhibitors can be determined by the activity of test compounds in this assay, which measures the ability of compounds to inhibit the synthesis of LTB4 by rat glycogen-elicited polymorphonuclear leukocytes (PMN) in the presence of exogenous substrate.
The assay is carried out as follows:
Rat polymorphonuclear leukocytes (PMNs) are obtained from female Wistar rats (150-200 g) which receive an injection of 6% glycogen (10 ml i.p.). Rats are sacrificed 18-24 hours post injection by CO2 asphyxiation and the elicited cells are harvested by peritoneal lavage using physiological saline (0.9% NaCl). The exudate is centrifuged at 400 xg for 10 minutes. The supernatant fluid is discarded and the cell pellet is resuspended to a concentration of 2.0×10^7 cells/mL in HBSS containing Ca^++ and Mg^++ and 10 μM L-cysteine.
To 1 mL aliquots of cell suspension, test drugs or vehicle are added, then preincubated at 37° C. for 10 minutes. A23187 (1 μM), [^3 H]-AA (3.0 μCi/mL) and unlabeled AA (1 μM) are then added and the samples are further incubated for 10 minutes. The reaction is terminated by centrifugation and pelleting cells. Supernatants are then analyzed by HPLC analysis on a 15 cm×4.6 mm ID supelcosil LC-18 (Supelco)(3M) column, using a two solvent system at a flow rate of 1.4 mL total flow as follows:
Gradient: (system is equilibrated with Solvent A)
Percent solvent changes are accomplished in a linear fashion.
Injections: 140 μL of each supernatant is injected directly onto column and ^3 H arachidonic acid metabolites are monitored using an on-line radioactivity detector (Ramona, IN/US, Fairfield, N.J.).
Standards: 10^4 -2.0×10^4 dpm of eicosanoids of interest are injected in 90 μL EtOH cocktail.
Results are expressed as percent inhibition at a given compound dose or as an IC50 value.

SMILES strings stand for the structures. Where two headings read alike, the source gives them in different places.

Take `NC1=NN(c2cccc(C(F)(F)F)c2)CC1` [BW755C]: the ED50 in assay [1] (Mus musculus, po, 20 min, 1 hour prior to zymosan, standard drugs) is 22 mg/kg; in assay [3] (p.o., 1 hour prior to anti-BSA, standard drugs) it was 18 mg/kg; in assay [5] it was 23 mg/kg. The ED30 in assay [2] was 14 mg/kg; in assay [4] it was 28 mg/kg.
On to `CC(C)Cc1ccc(C(C)C(=O)O)cc1` (centres unmarked) [Ibuprofen], for which the “ED50 LTC4” value in assay [6] is recorded as “Not Active”.
As for `O=C(O)CCc1nc(-c2ccc(OCc3ccc4ccccc4n3)cc2)c(-c2ccccc2)o1` [Example 5, 5-Phenyl-4-[4-(2-Quinolinylmethoxy)phenyl]-2-oxazole propanoic acid], in assay [1] (10 mg/kg i.p., negative values denote potentiation), the “% Inhibition 6-keto-PGF” value is reported as -27%. For the same compound, the inhibition at 10 µM in assay [7] was 96%. For the same compound, the “% Inhibition LTC4” value in assay [6] (10 mg/kg i.p.) came out at 86%.
`COc1ccc2c(c1)c(CC(=O)O)c(C)n2C(=O)c1ccc(Cl)cc1` [Indomethacin]: the ED50 in assay [3] came to 0.16 mg/kg. Besides, in assay [6], the “ED50 LTC4” value is on record as “Not Active”.

By ED50 is commonly meant the dose at which the effect has come halfway, by size or by number of responders. The inhibition is the share of the control response that was lost under treatment. Read a high inhibition as strong suppression.
